# Source: ChEMBL document CHEMBL5331046, “Disulfiram and dithiocarbamate analogues demonstrate promising antischistosomal effects” (Eur J Med Chem, 2022)
# Active and inactive are the calls of the source. The calls are words filed in the database; no cut-off is given here.
# Legend:
# Schistosoma mansoni [1] = test: Antischistosomal activity against Schistosoma mansoni couples assessed as decrease in parasite motility at 25 uM measured upto 72 hrs by bright field microscopy; assay type: functional; design: scale not given: the % may be the effect or the level left
# HepG2 [2] = test: Cytotoxicity against human HepG2 cells assessed as reduction in cell vaibility at 100 uM by WST-1 assay; assay type: toxicity, cell-based; details: hepg2, 100 µM
# LS174T [3] = test: Cytotoxicity against human LS174T cells assessed as reduction in cell viability at 100 uM by WST-1 assay; assay type: toxicity, cell-based
# Schistosoma mansoni [4] = test: Antischistosomal activity against Schistosoma mansoni couples assessed as lethality to parasites at 50 uM measured upto 72 hrs by bright field microscopy; assay type: functional, organism-based
# Schistosoma mansoni [5] = test: Antischistosomal activity against Schistosoma mansoni couples assessed as decrease in parasite vitality at <=25 uM measured upto 72 hrs by bright field microscopy; assay type: functional, organism-based
# Schistosoma mansoni [6] = test: Antischistosomal activity against Schistosoma mansoni couples assessed as inhibition of eggs production at <=25 uM measured upto 72 hrs by bright field microscopy; assay type: functional, organism-based
# Schistosoma mansoni [7] = test: Antischistosomal activity against Schistosoma mansoni couples assessed as couple separation at 100 uM measured upto 72 hrs by bright field microscopy; assay type: functional, organism-based
# Schistosoma mansoni [8] = test: Antischistosomal activity against Schistosoma mansoni male worm assessed as tegument damage at 100 uM measured upto 72 hrs by bright field microscopy; assay type: functional, organism-based
# Schistosoma mansoni [9] = test: Antischistosomal activity against Schistosoma mansoni female worm assessed as tegument damage at 100 uM measured upto 72 hrs by bright field microscopy; assay type: functional, organism-based
# Schistosoma mansoni [10] = test: Antischistosomal activity against Schistosoma mansoni female worm assessed as gut dilatations at 100 uM measured upto 72 hrs by bright field microscopy; assay type: functional, organism-based
# Schistosoma mansoni [11] = test: Antischistosomal activity against Schistosoma mansoni female worm assessed as gut dilatations at 10 uM measured upto 72 hrs by bright field microscopy; assay type: functional, organism-based
# Schistosoma mansoni [12] = test: Antischistosomal activity against Schistosoma mansoni couples assessed as decrease in parasite motility at 50 uM measured upto 72 hrs by bright field microscopy; assay type: functional; design: scale not given: the % may be the effect or the level left
# Schistosoma mansoni [13] = test: Antischistosomal activity against Schistosoma mansoni couples assessed as tegument damage at 100 uM measured upto 72 hrs by bright field microscopy; assay type: functional, organism-based
# Schistosoma mansoni [14] = test: Antischistosomal activity against Schistosoma mansoni couples assessed as reduction in pairing stability at 25 uM measured upto 72 hrs by bright field microscopy; assay type: functional; design: scale not given: the % may be the effect or the level left
# Schistosoma mansoni [15] = test: Antischistosomal activity against Schistosoma mansoni couples assessed as inhibition of eggs production at 25 uM measured upto 72 hrs by bright field microscopy; assay type: functional; design: scale not given: the % may be the effect or the level left
# Schistosoma mansoni [16] = test: Antischistosomal activity against Schistosoma mansoni couples assessed as decrease in parasite vitality at 25 uM measured upto 72 hrs by bright field microscopy; assay type: functional, organism-based
# Schistosoma mansoni [17] = test: Antischistosomal activity against Schistosoma mansoni couples assessed as decrease in parasite motility at <25 uM measured upto 72 hrs by bright field microscopy; assay type: functional, organism-based
# Schistosoma mansoni [18] = test: Antischistosomal activity against Schistosoma mansoni couples assessed as inhibition of eggs production at <25 uM measured upto 72 hrs by bright field microscopy; assay type: functional, organism-based
# Schistosoma mansoni [19] = test: Antischistosomal activity against Schistosoma mansoni couples assessed as decrease in mating stability <25 uM measured upto 72 hrs by bright field microscopy; assay type: functional, organism-based
# Schistosoma mansoni [20] = test: Antischistosomal activity against Schistosoma mansoni couples assessed as lethality to parasites at 100 uM measured upto 72 hrs by bright field microscopy; assay type: functional, organism-based
# HepG2 [21] = test: Cytotoxicity against human HepG2 cells assessed as reduction in cell viability upto 50 uM by WST-1 assay; assay type: toxicity, cell-based; details: hepg2, 50 µM
# LS174T [22] = test: Cytotoxicity against human LS174T cells assessed as reduction in cell vaibility upto 50 uM by WST-1 assay; assay type: toxicity, cell-based
# Schistosoma mansoni [23] = test: Antischistosomal activity against Schistosoma mansoni couples at 5 uM measured upto 72 hrs by bright field microscopy; assay type: functional, organism-based
# Schistosoma mansoni [24] = test: Antischistosomal activity against Schistosoma mansoni couples at 100 uM measured upto 72 hrs by bright field microscopy; assay type: functional, organism-based
# Schistosoma mansoni [25] = test: Antischistosomal activity against Schistosoma mansoni couples assessed as gut dilations at 25 uM measured upto 72 hrs by bright field microscopy; assay type: functional, organism-based
# Schistosoma mansoni [26] = test: Antischistosomal activity against Schistosoma mansoni couples assessed as couple separation at 25 uM measured upto 72 hrs by bright field microscopy; assay type: functional, organism-based
# Schistosoma mansoni [27] = test: Antischistosomal activity against Schistosoma mansoni couples assessed as tissue structural changes at 25 uM measured upto 72 hrs by bright field microscopy; assay type: functional, organism-based
# Schistosoma mansoni [28] = test: Antischistosomal activity against Schistosoma mansoni couples assessed as decrease in parasite motility at 10 uM measured upto 72 hrs by bright field microscopy; assay type: functional, organism-based
# Schistosoma mansoni [29] = test: Antischistosomal activity against Schistosoma mansoni couples assessed as decrease in parasite motility at 15 uM measured upto 72 hrs by bright field microscopy; assay type: functional; design: scale not given: the % may be the effect or the level left
# Schistosoma mansoni [30] = test: Antischistosomal activity against Schistosoma mansoni couples assessed as decrease in parasite vitality at 15 uM measured upto 72 hrs by bright field microscopy; assay type: functional; design: scale not given: the % may be the effect or the level left
# Schistosoma mansoni [31] = test: Antischistosomal activity against Schistosoma mansoni couples assessed as decrease in pairing stability at 15 uM measured upto 72 hrs by bright field microscopy; assay type: functional; design: scale not given: the % may be the effect or the level left
# Schistosoma mansoni [32] = test: Antischistosomal activity against Schistosoma mansoni couples assessed as inhibition of eggs production at 15 uM measured upto 72 hrs by bright field microscopy; assay type: functional; design: scale not given: the % may be the effect or the level left
# Schistosoma mansoni [33] = test: Antischistosomal activity against Schistosoma mansoni couples assessed as induction of phenotypes at 10 uM measured upto 72 hrs by bright field microscopy; assay type: functional, organism-based
# Schistosoma mansoni [34] = test: Antischistosomal activity against Schistosoma mansoni couples assessed as tegument damage at 10 uM measured upto 72 hrs by bright field microscopy; assay type: functional, organism-based
# Schistosoma mansoni [35] = test: Antischistosomal activity against Schistosoma mansoni couples assessed as loss of internal structures at 10 uM measured upto 72 hrs by bright field microscopy; assay type: functional, organism-based
# Schistosoma mansoni [36] = test: Antischistosomal activity against Schistosoma mansoni couples assessed as tegument damage at <=10 uM measured upto 72 hrs by bright field microscopy; assay type: functional, organism-based
# Schistosoma mansoni [37] = test: Antischistosomal activity against Schistosoma mansoni couples assessed as gut dilatations at <=10 uM measured upto 72 hrs by bright field microscopy; assay type: functional, organism-based
# Schistosoma mansoni [38] = test: Antischistosomal activity against Schistosoma mansoni couples assessed as loss of internal structures at <=10 uM measured upto 72 hrs by bright field microscopy; assay type: functional, organism-based
# Schistosoma mansoni [39] = test: Antischistosomal activity against Schistosoma mansoni couples assessed as reduction in parasite motility at <=10 uM measured upto 72 hrs by bright field microscopy; assay type: functional; design: scale not given: the % may be the effect or the level left; details: up to 10 µM
# Schistosoma mansoni [40] = test: Antischistosomal activity against Schistosoma mansoni couples assessed as gut dilatations at 10 uM measured upto 72 hrs by bright field microscopy; assay type: functional, organism-based
# Schistosoma mansoni [41] = test: Antischistosomal activity against Schistosoma mansoni couples assessed as worm motility at 100 uM measured after 72 hrs by bright field microscopy; assay type: functional
# Schistosoma mansoni [42] = test: Antischistosomal activity against Schistosoma mansoni couples assessed as worm motility at 100 uM treated for 72 hrs and measured at 144 hrs after drug wash-out by bright field microscopy; assay type: functional
# Schistosoma mansoni [43] = test: Antischistosomal activity against Schistosoma mansoni couples assessed as worm motility at 100 uM treated for 72 hrs and measured at 192 hrs after drug wash-out by bright field microscopy; assay type: functional
# Schistosoma mansoni [44] = test: Antischistosomal activity against Schistosoma mansoni couples assessed as worm motility at 50 uM measured after 72 hrs by bright field microscopy; assay type: functional
# Schistosoma mansoni [45] = test: Antischistosomal activity against Schistosoma mansoni couples assessed as worm motility at 50 uM treated for 72 hrs and measured at 144 hrs after drug wash-out by bright field microscopy; assay type: functional
# Schistosoma mansoni [46] = test: Antischistosomal activity against Schistosoma mansoni couples assessed as worm motility at 50 uM treated for 72 hrs and measured at 192 hrs after drug wash-out by bright field microscopy; assay type: functional
# Schistosoma mansoni [47] = test: Antischistosomal activity against Schistosoma mansoni couples assessed as worm motility at 25 uM measured after 72 hrs by bright field microscopy; assay type: functional
# Schistosoma mansoni [48] = test: Antischistosomal activity against Schistosoma mansoni couples assessed as worm motility at 25 uM treated for 72 hrs and measured at 144 hrs after drug wash-out by bright field microscopy; assay type: functional
# Schistosoma mansoni [49] = test: Antischistosomal activity against Schistosoma mansoni couples assessed as worm motility at 25 uM treated for 72 hrs and measured at 192 hrs after drug wash-out by bright field microscopy; assay type: functional
# Schistosoma mansoni [50] = test: Antischistosomal activity against Schistosoma mansoni couples assessed as reduction in pairing stability measured up to 72 hrs by bright field microscopy; assay type: functional, organism-based
# Schistosoma mansoni [51] = test: Antischistosomal activity against Schistosoma mansoni couples assessed as reduction in worm motility measured up to 72 hrs by bright field microscopy; assay type: functional, organism-based
smiles,measurement,setting,value
S=C(SCc1ccccc1)n1ccc2ccccc21,Activity,Schistosoma mansoni [1],>=55%
same,Activity,HepG2 [2],Non-Toxic
same,Activity,LS174T [3],Non-Toxic
same,Activity,Schistosoma mansoni [4],Active
same,Activity,Schistosoma mansoni [5],Active
same,Activity,Schistosoma mansoni [6],Active
same,Activity,Schistosoma mansoni [7],Active
same,Activity,Schistosoma mansoni [8],Active
same,Activity,Schistosoma mansoni [9],Active
same,Activity,Schistosoma mansoni [10],Active
same,Activity,Schistosoma mansoni [11],inactive
CCN(CC)C(=S)SCc1cc([N+](=O)[O-])ccc1O,Activity,Schistosoma mansoni [12],>60%
same,Activity,Schistosoma mansoni [1],inactive
same,Activity,Schistosoma mansoni [13],Active
same,Activity,Schistosoma mansoni [14],>=90%
same,Activity,Schistosoma mansoni [15],>=90%
same,Activity,Schistosoma mansoni [16],inactive
same,Activity,Schistosoma mansoni [17],inactive
same,Activity,Schistosoma mansoni [18],inactive
same,Activity,Schistosoma mansoni [19],inactive
same,Activity,Schistosoma mansoni [20],Active
CCN(CC)C(=S)SCc1cc(=O)oc2cc(OC)ccc12,Activity,HepG2 [21],Non-Toxic
same,Activity,LS174T [22],Non-Toxic
same,Activity,Schistosoma mansoni [23],Active
CN(C)CCN1CCN(C(=S)SCc2ccc([N+](=O)[O-])cc2)CC1,Activity,Schistosoma mansoni [1],55%
same,Activity,HepG2 [2],Toxic
same,Activity,LS174T [3],Toxic
same,Activity,Schistosoma mansoni [24],Active
same,Activity,Schistosoma mansoni [15],Active
same,Activity,Schistosoma mansoni [16],Active
same,Activity,Schistosoma mansoni [25],Active
same,Activity,Schistosoma mansoni [26],Active
same,Activity,Schistosoma mansoni [27],Active
CS(=O)(=O)N1CCN(C(=S)SCc2ccc([N+](=O)[O-])cc2)CC1,Activity,HepG2 [2],Non-Toxic
same,Activity,LS174T [3],Non-Toxic
same,Activity,Schistosoma mansoni [28],Active
same,Activity,Schistosoma mansoni [29],50%
same,Activity,Schistosoma mansoni [30],90%
same,Activity,Schistosoma mansoni [31],20%
same,Activity,Schistosoma mansoni [32],40%
same,Activity,Schistosoma mansoni [33],Active
same,Activity,Schistosoma mansoni [34],Active
same,Activity,Schistosoma mansoni [35],Active
same,Activity,Schistosoma mansoni [36],inactive
same,Activity,Schistosoma mansoni [37],inactive
same,Activity,Schistosoma mansoni [38],inactive
same,Activity,Schistosoma mansoni [39],50%
same,Activity,Schistosoma mansoni [40],Active
same,Activity,Schistosoma mansoni [41],31%
same,Activity,Schistosoma mansoni [42],24%
same,Activity,Schistosoma mansoni [43],24%
same,Activity,Schistosoma mansoni [44],31%
same,Activity,Schistosoma mansoni [45],27%
same,Activity,Schistosoma mansoni [46],28%
same,Activity,Schistosoma mansoni [47],35%
same,Activity,Schistosoma mansoni [48],36%
same,Activity,Schistosoma mansoni [49],35%
same,EC50,Schistosoma mansoni [50],9.2 µM
same,EC50,Schistosoma mansoni [51],9.6 µM
